Earlier results, collected in patent publication US20120015968A1, “USE OF PYRIMIDYLAMINOBENZAMIDE DERIVATIVES FOR THE TREATMENT OF DISORDERS MEDIATED BY THE LEUCINE ZIPPER-AND STERILE ALPHA MOTIF-CONTAINING KINASE (ZAK)” (NOVARTIS AG, priority 2009, published 2012).

Molecular target: ZAK (Homo sapiens, UniProt Q9NYL2)
Conditions: biotinylated myelin basic protein as substrate; U. Rix et al, Leukemia (2010) 24, 44-50, p. 48; read-out: IC50 of inhibition of ZAK activity

Chain of ZAK (Q9NYL2 whole entry): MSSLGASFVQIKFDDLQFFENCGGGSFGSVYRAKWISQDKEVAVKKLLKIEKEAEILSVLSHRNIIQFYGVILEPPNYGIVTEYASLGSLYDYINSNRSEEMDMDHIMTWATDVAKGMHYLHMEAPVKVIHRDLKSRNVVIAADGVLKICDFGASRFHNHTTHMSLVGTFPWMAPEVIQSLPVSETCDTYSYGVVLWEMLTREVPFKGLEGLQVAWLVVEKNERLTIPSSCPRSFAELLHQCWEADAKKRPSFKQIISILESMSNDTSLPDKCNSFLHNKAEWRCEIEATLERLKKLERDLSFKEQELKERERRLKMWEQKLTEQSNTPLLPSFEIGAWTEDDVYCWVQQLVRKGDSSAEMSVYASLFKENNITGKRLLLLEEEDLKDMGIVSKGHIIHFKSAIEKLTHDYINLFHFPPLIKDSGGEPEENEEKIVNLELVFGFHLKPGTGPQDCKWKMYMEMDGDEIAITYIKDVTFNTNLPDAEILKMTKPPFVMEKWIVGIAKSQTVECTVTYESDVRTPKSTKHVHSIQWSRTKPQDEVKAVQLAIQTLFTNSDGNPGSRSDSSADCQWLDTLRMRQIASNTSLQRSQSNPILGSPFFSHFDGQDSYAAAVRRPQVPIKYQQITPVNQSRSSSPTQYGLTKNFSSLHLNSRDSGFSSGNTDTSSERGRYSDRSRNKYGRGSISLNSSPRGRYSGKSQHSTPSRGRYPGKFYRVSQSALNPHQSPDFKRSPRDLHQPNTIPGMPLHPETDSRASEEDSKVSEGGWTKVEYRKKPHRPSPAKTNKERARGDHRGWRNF

- IC50: 73 nM
SMILES: Cc1ccc(NC(=O)c2ccc(CN3CC[C@H](N(C)C)C3)c(C(F)(F)F)c2)cc1Nc1nccc(-c2cncnc2)n1 [INNO-406]
